Consider two compounds from patent publication US12637477B2, “Synthesis process of amide derivatives of hydroxypenicillanic acid” (priority 2020, dated 2026).

The experiment relates to CHO-S cells. In words: Viable cell count of CHO-S cells after 24 hours incubation (anticancer activity). The format is cell-based, hamster. The protocol: The two compounds, by means of a standard assay, were tested on mammalian (hamster) cancer cells to evaluate possible anticancer activity.
Compound (IIB) was used at concentrations of 25 μM and 50 μM, while Peny compound was tested at concentrations up to 400 μM.
Mammalian cancer cells were then incubated for 24 hours.
Precisely, CHO-S cells were cultured in 2 mL of DMEM (Dulbecco's Modified Eagle Medium) (10% FBS, 6% Glutamax) in a 24-well plate at a density of 200×10^3 cells/per well and subsequently incubated at 37° C. in a controlled atmosphere (5% CO2) under shaking. The following day, cells were counted by means of the Countess II instrument (Thermofisher Scientific) (an automated cell counter). They were then treated with Purymycin (positive control), Peny, (IIB) compounds, and in the absence of any product (negative control), at the concentrations shown in FIG. 37.
Cell counts were performed after 24 hours to determine the number of viable cells.

As for `CC(=O)OC[C@@H]1OC(n2cc(COC(=O)[C@@H]3N4C(=O)[C@@H](NC(=O)OC(C)(C)C)[C@H]4SC3(C)C)nn2)[C@@H](OC(C)=O)[C@H](OC(C)=O)[C@H]1OC(C)=O` (some centres unmarked) [Penγ], the anticancer effect entry (tested at concentrations up to 400 μM) is “not associated”.
On to `CC(=O)OC[C@H]1O[C@@H](OCc2cn(CCCNC(=O)[C@@H]3N4C(=O)N[C@H](C(=O)O)[C@H]4SC3(C)C)nn2)[C@H](OC(C)=O)[C@@H](OC(C)=O)[C@@H]1OC(C)=O` [Compound (IIB), (3S, 7R, 7aR)-2,2-dimethyl-5-oxo-3-((3-(4-((((2R, 3R, 4S, 5R, 6R)-3,4,5-triacetoxy-6-(acetoxymethyl)tetrahydro-2H-pyran-2-yl)oxy)methyl)-1H-1,2,3-triazol-1-yl)propyl)carbamoyl)hexahydroimidazo[5,1-b]thiazole-7-carboxylic acid], for which, for the setting “50 μM, read-out: reduction of viable cells”, the cytotoxicity at 50 µM is ~50%.
